Experimental data as given in patent US20050101560A1, “Method of treating an individual with methyl 1-[N6-(3-iodobenzyl)-adenin-9-yl] beta-D-ibofuronamide” (CAN-FITE BIOPHARMA LTD., priority 2003, published 2005).
“And” between values parts separate entries of the source, which are not always exact repeats. Equal entries are not always repeated. “Also recorded” adds a separate entry of the source.

Columns and labels:
[1] = Single dose study: plasma pharmacokinetics after a single oral dose; assay type: in vivo, human; conditions: for AUC(0-48): mean (SD)
Method: (§1) Two clinical studies were carried out: a single dose study and a repeat dose study. Both studies were parallel-group, double-blind, dose-rising, and placebo-controlled in design.
(§2) In each group, 1 subject received placebo. […] In each group, 2 subjects received placebo.
(§3) Healthy young men, aged 18-45 years.
(§4) In the repeated dose study, an aqueous 0.5% methylcellulose suspension (Methocel A4M Premium, The Dow Chemical Company) was used. In both studies, the study medication was taken orally as a drink, followed by 50 ml of tap water.
(§5) The following procedures were done: • Safety assesment: laboratory assessments (routine biochemistry and urinalysis), physical examination, 12-lead ECO, ambulatory ECG, pulmonary function testing (FEV1), vital signs (semi-recumbent in the single dose study; semi-recumbent and standing in the repeat dose study).
(§6) Plasma samples were assayed for IB-MECA using LC/MS/MS. The lower limit of quantification (LLOQ) was 0.1 ng/mL. Intra-assay coefficients of variation (CV) were <5.0% and inter-assay CVs were <9.4%.
(§7) Maximum concentration (Cmax) and time to maximum concentration (tmax) were observed values. Other pharmacokinetic parameters (half-life, to AUC; and clearance, CL/F) were calculated by non-compartmental methods using WinNonlin® software (version 3.0, Pharsight, Mountain View, Calif., US). Accumulation indices of Cmax and AUC were calculated as ratio of values at steady state (Day 7) to the values on Day 1.

[2] = Repeat dose study: plasma pharmacokinetics on Days 1 and 7 of 12-hourly oral dosing; assay type: in vivo, human
Method: as §1, §2, §3, §4, §5, §6, §7

[3] = Single dose study: safety and tolerability; assay type: in vivo, human; conditions: for safety and tolerability: single (daily) oral dose up to 5 mg
Method: as §1, §2, §3, §4, §5
(§8) Data from all subjects who received IB-MECA were included in the analysis of safety and tolerability (adverse events and laboratory safety variables). Numerical data and parameters were summarised using means or medians, and other descriptive statistics, according to the type and distribution of the data.

[4] = Repeat dose study: safety and tolerability; assay type: in vivo, human; conditions: for safety and tolerability: twice daily (12-hourly) oral dose up to 4 mg
Method: as §1, §2, §3, §4, §5, §8

[5] = Water solubility; assay type: physicochemical
[6] = tested on: various tumour cell types; conditions: arresting cell growth at GO/GI phase; Fishman et al, 2000a; cited from earlier work
[7] = tested on: syngeneic (melanoma, colon carcinoma) and xenograft (colon and prostate carcinoma) mouse models; conditions: cited from earlier work
[8] = tested on: neutrophils; conditions: cited from earlier work
[9] = 2 mg oral every 12 h, Day 1, mean (SD), n = 5
[10] = 2 mg oral every 12 h, Day 7, mean (SD), n = 5
[11] = 3 mg oral every 12 h, Day 1, mean (SD), n = 5
[12] = 3 mg oral every 12 h, Day 7, mean (SD), n = 5
[13] = 4 mg oral every 12 h, Day 1, mean (SD), n = 5
[14] = 4 mg oral every 12 h, Day 7, mean (SD), n = 5
[15] = 5 mg oral every 12 h, Day 1, mean (SD), n = 5
[16] = 5 mg oral every 12 h, Day 7, mean (SD), n = 5

## CNC(=O)[C@H]1O[C@@H](n2cnc3c(NCc4cccc(I)c4)ncnc32)[C@H](O)[C@@H]1O [IB-MECA, methyl 1-[N6-(3-iodobenzyl)-adenin-9-yl]-β-D-ibofuronamide]
[1]; single daily dose of 5 mg and twice daily dose of 4 mg
  plasma level (Cmax) at safe doses: < 80 ng/mL
[1]; single oral dose 1 mg, n = 4
  AUC(0-48): 220.7 ng·h/mL
[1]; single oral dose 1 mg, median (range), n = 4
  tmax: 1 (1-2) h
[1]; single oral dose 5 mg, n = 4
  AUC(0-48): 872.3 ng·h/mL
[1]; single oral dose 5 mg, median (range), n = 4
  tmax: 1 (1-2) h
[1]; single oral dose 10 mg, n = 4
  AUC(0-48): 1780.0 ng·h/mL
[1]; single oral dose 10 mg, median (range), n = 4
  tmax: 1 (1-2) h
[1]; single oral doses
  inter-subject variability: low
[1]; single oral doses 1, 5, 10 mg
  pharmacokinetics (linearity): linear
[1]; single oral doses 1, 5, 10 mg, overall range
  tmax: 1 to 2 h
[1]; single oral doses, independent of dose
  apparent plasma clearance (CL/F): 47 L/h
[2]; [9]
  AUC(0-12): 155.2 (39.1) ng · h/mL
  AUC(inf): 207.4 (52.0) ng · h/mL
[2]; 2 mg oral every 12 h, Day 1, median (range), n = 5
  tmax: 2 (1-4) h
[2]; [10]
  AUC(0-12): 242.4 (41.4) ng · h/mL
  AUC(0-24): 346.3 (64.0) ng · h/mL
[2]; 2 mg oral every 12 h, Day 7, median (range), n = 5
  tmax: 2 (1-2) h
[2]; [11]
  AUC(0-12): 304.5 (19.5) ng · h/mL
  AUC(inf): 423.5 (27.5) ng · h/mL
[2]; 3 mg oral every 12 h, Day 1, median (range), n = 5
  tmax: 2 (1-2) h
[2]; [12]
  AUC(0-12): 341.6 (38.1) ng · h/mL
  AUC(0-24): 512.1 (74.1) ng · h/mL
[2]; 3 mg oral every 12 h, Day 7, median (range), n = 5
  tmax: 1 (1-2) h
[2]; [13]
  AUC(0-12): 297.0 (57.2) ng · h/mL
  AUC(inf): 400.2 (85.7) ng · h/mL
[2]; 4 mg oral every 12 h, Day 1, median (range), n = 5
  tmax: 2 (1-2) h
[2]; [14]
  AUC(0-12): 458.3 (54.8) ng · h/mL
  AUC(0-24): 640.3 (73.7) ng · h/mL
[2]; 4 mg oral every 12 h, Day 7, median (range), n = 5
  tmax: 1 (1-2) h
[2]; [15]
  AUC(0-12): 461.6 (157.4) ng · h/mL
  AUC(inf): 596.1 (196.6) ng · h/mL
[2]; 5 mg oral every 12 h, Day 1, median (range), n = 5
  tmax: 2 (1-2) h
[2]; [16]
  AUC(0-12): 601.0 (163.6) ng · h/mL
  AUC(0-24): 818.4 (214.0) ng · h/mL
[2]; 5 mg oral every 12 h, Day 7, median (range), n = 5
  tmax: 2 (2-2) h
[2]; Day 1 and steady state (Day 7)
  dose proportionality of plasma concentrations: dose proportional
[2]; repeated oral doses 2-5 mg every 12 h, overall
  tmax: 1 to 2 h
[2]; repeated oral doses every 12 h
  time at which steady state was reached: ≤ 3 days
[2]; repeated oral doses every 12 h for 7 days
  change of pharmacokinetics after repeated dosing: did not change
[2]; repeated oral doses, Day 7, independent of dose
  Half-life at steady state: 9 to 10 h
[2]; repeated oral doses, independent of dose
  apparent plasma clearance (CL/F): 5 to 10 L/h
[3]; healthy adults, oral dosing
  blood level correlated with side effects: exceeding 160 nM and > 80 ng/ml
[3]
  safety and tolerability: safe and well tolerated
[3]; listed as 13-MCA
  safety and tolerability: well tolerated
[3]; single daily oral dose 10 mg
  side effects: some cardiovascular-related side effects
[3]; single dose 5 mg, four subjects
  change in resting heart rate: small increase
[3]; single dose of 10 mg
  adverse events within 12 h of dosing (number): 8
[3]; single dose study
  safety tests of blood and urine: no clinically significant changes
[3]; single dose study, not measured standing
  change in blood pressure: In no subject was there a significant change
[4]; 5 mg oral twice daily
  adverse events: some cardiovascular-related adverse events; also recorded: headache and drowsiness were most common
[4]; repeat dose study
  safety tests of blood and urine: no clinically significant changes
[4]; repeat dose study, Day 1
  heart rate: dose-related increase
[4]; repeat dose study, Day 7 versus Day 1
  heart rate effect: clearly smaller
[4]; repeated doses of 5 mg 12-hourly
  adverse events within 12 h of dosing (number): 13
[4]; repeated doses of up to 4 mg 12-hourly
  adverse events within 12 h of dosing (number): 2
[4]
  safety and tolerability: safe and well tolerated
[4]; listed as 13-MCA
  safety and tolerability: well tolerated
[4]; twice-daily therapeutic regimen
  maximum tolerated dose: 4 mg
[5]
  water solubility: not water soluble
[6]
  effect on tumour cell growth: cytostatic effect
[7]; oral administration, nude mice
  colon carcinoma growth: inhibits colon carcinoma growth
[7]; orally administered, syngeneic and xenograft mouse models
  development of tumours: inhibits the development of tumours
[8]; administered with chemotherapy
  myelotoxicity: protects against myelotoxicity
[8]; oral administration, after cytotoxic drug therapy
  neutrophil recovery: stimulates neutrophil recovery
[8]; oral, mice, via an increase in G-CSF
  production of neutrophils: stimulates the production of neutrophils
